The values below come from patent US8440710B2, “HSL inhibitors useful in the treatment of diabetes” (Hoffmann-La Roche Inc., priority 2009, dated 2013).

The structures appear in SMILES notation.

For this test, the target named is T1, human HSL (Homo sapiens, UniProt Q05469).
T1 construct: generate a full length human HSL ORF with a 3′-His6 tag; made in house; host or cells: High 5 insect cells (baculovirus, pFast-BAC)
T1 sequence (Q05469 1-1076): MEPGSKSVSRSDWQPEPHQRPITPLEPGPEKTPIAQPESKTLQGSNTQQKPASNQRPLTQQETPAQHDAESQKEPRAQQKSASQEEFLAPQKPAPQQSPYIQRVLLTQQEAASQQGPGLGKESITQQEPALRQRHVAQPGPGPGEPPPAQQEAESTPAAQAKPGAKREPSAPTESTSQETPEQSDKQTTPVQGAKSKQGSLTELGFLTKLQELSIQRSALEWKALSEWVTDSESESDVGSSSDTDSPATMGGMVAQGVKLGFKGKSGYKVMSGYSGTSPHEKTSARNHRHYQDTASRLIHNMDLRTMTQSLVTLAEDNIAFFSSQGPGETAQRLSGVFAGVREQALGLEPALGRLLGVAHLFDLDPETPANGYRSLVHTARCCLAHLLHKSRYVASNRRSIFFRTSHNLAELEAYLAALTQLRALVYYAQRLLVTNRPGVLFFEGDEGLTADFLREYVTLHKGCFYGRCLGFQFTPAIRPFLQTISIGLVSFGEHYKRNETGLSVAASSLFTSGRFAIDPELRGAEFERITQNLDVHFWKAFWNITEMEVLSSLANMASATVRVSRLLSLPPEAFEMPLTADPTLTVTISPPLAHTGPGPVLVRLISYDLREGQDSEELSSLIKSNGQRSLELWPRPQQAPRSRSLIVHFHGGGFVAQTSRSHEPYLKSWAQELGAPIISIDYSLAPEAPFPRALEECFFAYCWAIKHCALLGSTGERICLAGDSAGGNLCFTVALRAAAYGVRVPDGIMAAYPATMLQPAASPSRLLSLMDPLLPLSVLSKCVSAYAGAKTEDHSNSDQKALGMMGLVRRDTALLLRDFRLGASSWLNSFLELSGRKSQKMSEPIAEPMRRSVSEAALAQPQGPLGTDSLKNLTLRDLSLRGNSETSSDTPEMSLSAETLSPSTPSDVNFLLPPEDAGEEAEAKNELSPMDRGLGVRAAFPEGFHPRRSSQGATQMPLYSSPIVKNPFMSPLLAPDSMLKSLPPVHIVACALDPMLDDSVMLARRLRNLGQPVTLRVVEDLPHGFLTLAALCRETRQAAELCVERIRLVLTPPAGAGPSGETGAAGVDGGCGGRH
Put plainly: Human Hormone-Sensitive Lipase (HSL) enzyme inhibition assay (colorimetric, DMPT substrate). Type of test: biochemical. To be noted: human full length HSL-His6, 2,3-dimercapto-1-propanol tributyrate substrate, 37° C. 20 minutes, absorbance at 405 nm; read-out: HSL hum IC50. The method, boiled down:
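Full-length human HSL with C-terminal His6, expressed in baculovirus-infected High 5 cells and Ni-NTA purified, was added (15 ug/ml stock) to 1.5 mM DMPT in 100 mM MOPS pH 7.2, 0.2 mg/ml fatty acid-free BSA containing compound. After 20 min at 37 °C, DTNB with SDS/Triton X-100 was added; A405 read after 15 min at RT.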
In the case of `C[C@H](Oc1ccc(N2CC[C@]3(CC[C@@](O)(C(F)(F)F)CC3)C2=O)cc1)C(F)(F)F` [Example 177a, (5α,8α)-8-Hydroxy-8-trifluoromethyl-2-[4-((S)-2,2,2-trifluoro-1-methyl-ethoxy)-phenyl]-2-aza-spiro[4.5]decan-1-one], the IC50 came to 40 nM.

`COC[C@]1(O)CC[C@]2(CCN(c3ccc(OCC(F)(F)F)nc3)C2=O)CC1` [Example 110, (5α,8α)-8-Hydroxy-8-(methoxymethyl)-2-(6-(2,2,2-trifluoroethoxy)pyridin-3-yl)-2-aza-spiro[4.5]decan-1-one]: the IC50 was 190 nM.

Take `CC(C)(C)c1ccc(N2CC[C@]3(CC[C@@](O)(COCC(F)(F)F)CC3)C2=O)cc1` [Example 347, (5α,8α)-2-(4-tert-Butyl-phenyl)-8-hydroxy-8-(2,2,2-trifluoro-ethoxymethyl)-2-aza-spiro[4.5]decan-1-one]: the IC50 was found to be 10 nM.

For the compound `CC(C)(C)c1ccc(N2CC[C@]3(CC[C@@](O)(CN4CCCCC4=O)CC3)C2=O)cc1` [Example 351, (5α,8α)-2-(4-tert-Butyl-phenyl)-8-hydroxy-8-(2-oxo-piperidin-1-ylmethyl)-2-aza-spiro[4.5]decan-1-one], the IC50 was 10 nM.

For the compound `O=C1N(c2ccc(C3CC(F)(F)C3)cc2)CC[C@]12CC[C@](O)(C(F)(F)F)CC2` [Example 341, (5α,8β)-2-[4-(3,3-Difluoro-cyclobutyl)-phenyl]-8-hydroxy-8-trifluoromethyl-2-aza-spiro[4.5]decan-1-one], the IC50 is 1350 nM.

Consider `O=C1N(c2ccc([C@@H](O)C(F)(F)F)cc2)CC[C@]12CC[C@@](O)(C1CCCC1)CC2` [Example 202, (5α,8α)-8-cyclopentyl-8-hydroxy-2-(4-((R)-2,2,2-trifluoro-1-hydroxyethyl)phenyl)-2-aza-spiro[4.5]decan-1-one], for which the IC50 was found to be 10 nM.

On to `O=C1N(c2ccc(C3CC3)cc2)CC[C@]12CC[C@H](O)CC2` [Example 39, (5α,8α)-2-(4-Cyclopropyl-phenyl)-8-hydroxy-2-aza-spiro[4.5]decan-1-one], for which the IC50 came out at 560 nM.

In the case of `CC(C)S(=O)(=O)C[C@]1(O)CC[C@]2(CCN(c3ccc(C(C)(C)C)cc3)C2=O)CC1` [Example 333, (5α,8α)-2-(4-tert-Butyl-phenyl)-8-hydroxy-8-(propane-2-sulfonylmethyl)-2-aza-spiro[4.5]decan-1-one], the IC50 turned out to be 8 nM.

As to `CC(C)(C)SC[C@]1(O)CC[C@]2(CCN(c3ccc(OCC(F)(F)F)cc3)C2=O)CC1` [Example 319, (5α,8α)-8-tert-Butylsulfanylmethyl-8-hydroxy-2-[4-(2,2,2-trifluoro-ethoxy)-phenyl]-2-aza-spiro[4.5]decan-1-one], the IC50 worked out at 10 nM.

Take `CCCO[C@H](c1ccc(N2CC[C@]3(CC[C@@](O)(COC)CC3)C2=O)cc1)C(F)(F)F` [Example 141, (5α,8α)-8-Hydroxy-8-(methoxymethyl)-2-(4-((R)-2,2,2-trifluoro-1-propoxyethyl)phenyl)-2-aza-spiro[4.5]decan-1-one]: the IC50 is 30 nM.

On to `CC(C)Oc1ccc(N2CC[C@]3(CC[C@@](O)(c4ccccc4)CC3)C2=O)cc1` [Example 206, (5α,8α)-8-hydroxy-2-(4-isopropoxyphenyl)-8-phenyl-2-aza-spiro[4.5]decan-1-one], for which the IC50 came to 10 nM.

Take `O=C1N(c2ccc([C@@H](O)C(F)(F)F)cc2)CC[C@]12CC[C@@](O)(C1CCC1)CC2` [Example 200, (5α,8α)-8-cyclobutyl-8-hydroxy-2-(4-((R)-2,2,2-trifluoro-1-hydroxyethyl)phenyl)-2-aza-spiro[4.5]decan-1-one]: the IC50 was determined as 20 nM.

As to `CCOC(=O)C[C@]1(O)CC[C@]2(CCN(c3ccc(OC(F)(F)F)cc3)C2=O)CC1` [Example 116, [(5α,8α)-8-Hydroxy-1-oxo-2-(4-trifluoromethoxy-phenyl)-2-aza-spiro[4.5]dec-8-yl]-acetic acid ethyl ester], the 50% inhibitory concentration (IC50) came to 10 nM.
